The assay relates to DNFB-induced ear swelling. The assay is described as follows: Contact hypersensitivity model in mice (CHS), DNFB-induced ear swelling. The class given is in vivo. The settings on record: 30 mg/kg p.o., 30 minutes before challenge; DNFB-sensitized Balb/C mice; p<0.05 vs sensitized; FIG. 4. The protocol:
Balb/C female mice of about 8-12 weeks of age (18-22 g b.w.) were used for the Contact Hypersensitivity model. They were from Charles River Italia (Calco, Italy) and housed under the following constant environmental conditions: temperature 22° C.±2, relative humidity 55%±10, 15-20 air changes per hour (filtered on HEPA 99.99%) and artificial light with a 12-hour circadian cycle (7 a.m.-7 p.m.). All in vivo studies were performed according to the European Council Directive 86/609/EEC and the Italian Ministry guidelines for the care and use of experimental animals (decree #116/92). All the experimental protocols were authorized by the Italian Ministry of Health.
All chemicals were purchased from Sigma-Aldrich (St. Louis, Mo., USA) unless otherwise specified. […]
For the induction of CHS, 8-12 weeks old Balb/C mice, were sensitized by applying once a sensitizing solution of 35 μl of 0.5% DNFB in acetone/olive oil (4:1) on the shaved back. […] Ear thickness was monitored using a caliper at day 0, at day 5 (4 h, 8 h), at day 6 (24 h) and at day 7 (48 h). […] Ear thickness of both ears was measured at three point each, ear swelling was evaluated according to the following formula: […]
All values in the text and figures are presented as mean±SEM of (n) independent experiments. All data were analysed by one-way ANOVA followed by Tukey test. […]

These results are taken from US20090176762A1, “JNK Inhibitors for Treatment of Skin Diseases” (LABORATOIRES SERONO SA, priority 2006, published 2009).

As for `N#CC(c1ccnc(OCc2ccc(CN3CCOCC3)cc2)n1)c1nc2ccccc2s1` (stereo not shown) [JNK inhibitor, 1,3-benzothiazol-2-yl(2-{[4-(morpholin-4-ylmethyl)benzyl]oxy}pyrimidin-4-yl)acetonitrile], the ear swelling result is “significantly reduced ear swelling”.
